Where two headings read alike, the source gives them in different places.
Columns and labels:
[1] = target: GST-tagged KRAS-G12D (2-169) (Homo sapiens, UniProt P01116, G12D); assay: Nucleotide exchange assay (NEA), SOS-mediated, HTRF, KRAS G12D; assay type: biochemical; settings: IC50 extracted at 30 min, 20 nM SOScat
How it was run: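 SOS1cat-driven loading of fluorescent GTP-DY-647P1 (150 nM) onto GST-KRAS-G12D (2-169, 0.25 nM) read by time-resolved FRET; SOScat 20 nM, compound preincubated with KRAS 1 h at RT. Signal blanked to no-SOS reactions, normalized to DMSO; IC50 fitted from the 30-min read.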

[2] = target: GST-tagged KRAS-G12V (2-169) (Homo sapiens, UniProt P01116, G12V); assay: Nucleotide exchange assay (NEA), SOS-mediated, HTRF, KRAS G12V; assay type: biochemical; settings: Table 4; IC50 extracted at 90 min; 80 nM SOS
How it was run: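 Exchange onto fluorescent GTP-DY-647P1 (150 nM final) catalysed by 80 nM SOS1cat was followed by Tb-anti-GST HTRF at RT for up to 90 min, after 1 h compound pre-incubation with 0.25 nM GST-tagged KRAS-G12V (2-169), pH 7.3. DMSO = 0%, no-SOS blank = 100%; 4-parameter IC50 taken at 90 min.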

[3] = Table 4, read-out: NEA G12D IC50

Sequence of GST-tagged KRAS-G12D (2-169) (P01116 2-169 isoform P01116-2 G12D): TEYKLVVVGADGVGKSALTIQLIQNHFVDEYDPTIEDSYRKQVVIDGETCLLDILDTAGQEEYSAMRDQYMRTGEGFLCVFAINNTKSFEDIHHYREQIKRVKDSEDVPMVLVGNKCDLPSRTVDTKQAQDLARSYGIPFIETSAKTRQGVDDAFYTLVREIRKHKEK
Sequence of GST-tagged KRAS-G12V (2-169) (P01116 2-169 isoform P01116-2 G12V): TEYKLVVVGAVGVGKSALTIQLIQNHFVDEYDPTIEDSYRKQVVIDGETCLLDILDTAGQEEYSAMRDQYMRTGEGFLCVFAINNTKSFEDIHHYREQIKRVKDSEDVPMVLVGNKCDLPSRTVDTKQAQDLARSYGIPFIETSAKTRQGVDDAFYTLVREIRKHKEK

Row | Compound | IC50 ([1]; Table 2, read-out: NEA-G12D (uM) IC50) [µM] | IC50 [1, 3] [µM] | IC50 [2] [nM]
1 | CN(CC1(C#N)CC1)c1nc(OC[C@@]23CCCN2C[C@H](F)C3)nc(N2CCC3(CCc4sc(N)c(C#N)c43)C2)n1 (stereo partly drawn) [Compound 14, 2-amino-1′-[4-[(1-cyanocyclopropyl)methyl-methyl-amino]-6-[[(2R,8S)-2-fluoro-1,2,3,5,6,7-hexahydropyrrolizin-8-yl]methoxy]-1,3,5-triazin-2-yl]spiro[5,6-dihydrocyclopenta[b]thiophene-4,3′-pyrrolidine]-3-carbonitrile] | 1 to 20 | 1 to 20 | 1000 to 20000
2 | CN(CC(=O)NC(=N)N)c1nc(OC[C@@]23CCCN2C[C@H](F)C3)nc(N2CC3(C2)SCc2sc(N)c(C#N)c23)n1 [Compound 215, 2-[[4-(2-amino-3-cyano-spiro[6H-thieno[3,4-b]thiophene-4,3′-azetidine]-1′-yl)-6-[[(2R,8S)-2-fluoro-1,2,3,5,6,7-hexahydropyrrolizin-8-yl]methoxy]-1,3,5-triazin-2-yl]-methyl-amino]-N-carbamimidoyl-acetamide] | – | 0.1 to 1 | 100 to 1000
3 | CCN(c1nc(OC[C@@]23CCCN2C[C@H](F)C3)nc(N2CC3(C2)SCc2sc(N)c(C#N)c23)n1)C1(C(N)=O)CC1 [Compound 234, 1-[[4-(2-amino-3-cyano-spiro[6H-thieno[3,4-b]thiophene-4,3′-azetidine]-1′-yl)-6-[[(2R,8S)-2-fluoro-1,2,3,5,6,7-hexahydropyrrolizin-8-yl]methoxy]-1,3,5-triazin-2-yl]-ethyl-amino]cyclopropanecarboxamide] | – | 0.1 to 1 | 10 to 100
4 | N#Cc1c(N)sc2c1C1(CN(c3nc(OCC4(CN5CCOCC5)CC4)nc(N4CCNC[C@@H]4CO)n3)C1)SC2 [Compound 185, (R)-2′-amino-1-(4-(2-(hydroxymethyl)piperazin-1-yl)-6-((1-(morpholinomethyl)cyclopropyl)methoxy)-1,3,5-triazin-2-yl)-6′H-spiro[azetidine-3,4′-thieno[3,4-b]thiophene]-3′-carbonitrile] | – | < 0.01 | 100 to 1000
5 | CCN(c1nc(OC[C@@]23CCCN2C[C@H](F)C3)nc(N2CC3(C2)c2c(sc(N)c2C#N)CN3CC#N)n1)[C@H](C)c1cccnc1N [Compound 228, 2-amino-1′-[4-[[(1R)-1-(2-amino-3-pyridyl)ethyl]-ethyl-amino]-6-[[(2R,8S)-2-fluoro-1,2,3,5,6,7-hexahydropyrrolizin-8-yl]methoxy]-1,3,5-triazin-2-yl]-5-(cyanomethyl)spiro[6H-thieno[2,3-c]pyrrole-4,3′-azetidine]-3-carbonitrile] | – | 1 to 20 | 100 to 1000
6 | C[C@]1(CO)C[C@H](O)CN1c1nc(OC[C@@]23CCCN2C[C@H](F)C3)nc(N2CC3(CCc4sc(N)c(C#N)c43)C2)n1 [Compound 72, 2-amino-1′-[4-[[(2R,8S)-2-fluoro-1,2,3,5,6,7-hexahydropyrrolizin-8-yl]methoxy]-6-[(2R,4S)-4-hydroxy-2-(hydroxymethyl)-2-methyl-pyrrolidin-1-yl]-1,3,5-triazin-2-yl]spiro[5,6-dihydrocyclopenta[b]thiophene-4,3′-azetidine]-3-carbonitrile] | – | 0.1 to 1 | 100 to 1000
7 | CCN(c1nc(OC[C@]23CC[C@H](CN(C)C2)N3)nc(N2CC3(C2)SCc2sc(N)c(C#N)c23)n1)[C@H](C)c1cccnc1N [Compound 214, 2′-amino-1-(4-(((R)-1-(2-aminopyridin-3-yl)ethyl)(ethyl)amino)-6-(((1S,5R)-3-methyl-3,8-diazabicyclo[3.2.1]octan-1-yl)methoxy)-1,3,5-triazin-2-yl)-6′H-spiro[azetidine-3,4′-thieno[3,4-b]thiophene]-3′-carbonitrile] | – | < 0.01 | < 10
